≈ marks a conversion by molar mass, not a printed value.
What was measured:
[1] = test system: A. fumigatus A1160 (MFIG001); settings: Aspergillus fumigatus, read-out: MIC99 A. fumigatus A1160
Procedure: (§2) The Minimum Inhibitory Concentration (MIC, at 99% inhibition) of the compounds was determined using the broth microdilution method as recommended by EUCAST (EUCAST Definitive Document E.DEF 9.3.2, Method for the determination of broth dilution minimum inhibitory concentrations of antifungal agents for conidia forming moulds and EUCAST Definitive Document E.DEF 7.3.2 Method for the determination of broth dilution minimum inhibitory concentrations of antifungal agents for yeasts).

[2] = test system: T. evansi AntTat 3/3; experiment: Resazurin-based (Alamar blue) drug sensitivity assay; settings: read-out: IC50 T. evansi
Procedure: (§3) A detailed description of the procedure for evaluating activity against trypanosomes, using an Alamar Blue (resazurin) assay, is described below.
(§4) The bloodstream form (BSF) T. b. brucei s427 (see De Koning, H. P. et al., Mol. Biochem. Parasitol. 2000, 106, 181-185), T. evansi AntTat 3/3 (see Dean, S. et al., Proc. Natl. Acad. Sci. USA, 2013, 110, 14741-14746), and T. equiperdum (see Stewart, M. L. et al., Eukaryot. Cell, 2010, 9, 336-343) were cultured in HMI-9 medium (Life Technologies, Paisley, United Kingdom) supplemented with 10% heat inactivated Foetal Bovine Serum (FBS (PAA Laboratories Linz, Austria)), 14 μL/L β-mercaptoethanol (BDH, Dorset, UK), and 3.0 g/L NaHCO3 (Sigma-Aldrich) and adjusted to pH 7.4. These cell lines were maintained at 37° C. in a humidified, 5% CO2 environment.
(§5) A resazurin-based (Alamar blue) drug sensitivity assay was used to assess and compare the activity of standard trypanocides in the different cell lines investigated (see Gould, M. K. et al., Anal. Biochem., 2008, 382, 87-93). Briefly, 23 doubling dilutions of the test compound of the invention, starting at 100 μM, and a compound-free control were prepared in 100 μL medium in a 96-well white plate (Greiner Bio-one, Frickenhausen, Germany). The cells were adjusted to 2×10^4 cells/mL for T. b. brucei and T. equiperdum; 4×10^4 cells/mL for T. evansi; and 5×10^5 cells/mL for T. congolense in the appropriate medium. 100 μL of the adjusted cells was then added to the wells containing drug dilutions and incubated for 48 h under respective culture condition. Thereafter, 20 μL of 125 mg/mL resazurin sodium dye was added, and the plate was incubated for a further 24 h.

[3] = test system: Enterococcus faecalis (ATCC 51299); experiment: Antibacterial MIC, broth microdilution (CLSI); format: cell-based; settings: Enterococcus faecalis, ATCC51299; read-out: MIC80 E. faecalis
[4] = test system: SARS-CoV-2 (hCoV-19/Australia/VIC01/2020); experiment: SARS-CoV-2 microplaque inhibition assay in Vero-E6 cells; format: cell-based; settings: for IC50: Severe acute respiratory syndrome coronavirus 2, Vero C1008, plaque inhibition, Vero-E6 cells, read-out: IC50 SARS-CoV-2; for SARS-CoV-2 Selectivity Indices, Group: Alkyl Amidines and NH Pyrroles
[5] = test system: T. equiperdum; experiment: Resazurin-based (Alamar blue) drug sensitivity assay; settings: Trypanosoma equiperdum, read-out: IC50 T. equiperdum
Procedure: as §3, §4, §5

[6] = test system: human respiratory syncytial virus (RSV A2); experiment: Viral ToxGlo assay, Hep-2 cells; format: cell-based; settings: 72 h
[7] = test system: Staphylococcus aureus (ATCC 43300); experiment: Antibacterial MIC, broth microdilution (CLSI); format: cell-based; settings: for S. aureus Selectivity Indices, Group: Alkyl Amidines and NH Pyrroles; for MIC80: Staphylococcus aureus, ATCC43300, read-out: MIC80 S. aureus
[8] = test system: Genomic double stranded DNA (salmon); experiment: Fluorescence intercalator displacement (FID) assay, SYBR-safe probe; settings: 20 μM compound, 30° C., lower % = stronger binding
Outline: (§1)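 Probe displacement was measured at 30 °C in 1 mM phosphate pH 7.4 containing SybrSafe (12500-fold dilution), 3.76 ng/mL nucleic acid (salmon dsDNA or polyAU dsRNA) and 20 μM compound. Fluorescence loss is normalised between probe-only and probe-plus-nucleic-acid controls.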

[9] = test system: PolyAU double stranded RNA; experiment: as above; settings: 20 μM compound, 30° C., lower % = stronger binding
Outline: as §1

[10] = test system: Candida glabrata (ACPF3309); settings: for MIC99: Nakaseomyces glabratus, read-out: MIC99 Candida glabrata
[11] = test system: T. vaginalis; experiment: Trichomonas resorufin assay; format: cell-based; settings: Trichomonas vaginalis, read-out: IC50 T. vaginalis
[12] = test system: Escherichia coli (ATCC 25922); experiment: Antibacterial MIC, broth microdilution (CLSI); format: cell-based; settings: Escherichia coli, ATCC25922; read-out: MIC80 E. coli
[13] = test system: C. neoformans (F10025); settings: Cryptococcus neoformans, read-out: MIC99 C. neoformans
[14] = test system: Rhizopus arrhizus (NEQAS12.35321); settings: read-out: MIC99 Rhizopus arrhizus
Procedure: as §2

[15] = test system: Candida auris (H.17.157); settings: for MIC99: Candidozyma auris, read-out: MIC99 Candida auris; for C. auris Selectivity Indices, Group: SI, IC50 (μM)/MIC99 (μg/mL), HEK293 cytotoxicity, Alkyl Amidines and NH Pyrroles
[16] = test system: Influenza (H1N1); experiment: Accelerated Viral Neuraminidase Inhibition Assay (AVINA), A549 cells; format: cell-based; settings: Influenza A virus, 72 h
[17] = SI, IC50 (μM)/MIC80 (μM), HEK293 cytotoxicity
[18] = SI, IC50 (μM)/IC50 (μM), HEK293 cytotoxicity

For `COc1ccc(/C=C/c2ccc(C(=O)Nc3cc(C(=O)Nc4cc(C(=O)NCCC(=N)NC(C)C)n(C)c4)n(C)c3)cn2)cc1` [Ia15, (E)-N-(5-((5-((3-imino-3-(isopropylamino)propyl)carbamoyl)-1-methyl-1H-pyrrol-3-yl)carbamoyl)-1-methyl-1H-pyrrol-3-yl)-6-(4-methoxystyryl)nicotinamide], the MIC99 [1] was 25 to 50 µg/mL (≈ 40.9 to 81.9 µM), the IC50 [2] was 100 to 1000 nM and the MIC80 [3] was 5 to 25 µM (≈ 3.05 to 15.3 µg/mL). For the same compound, the IC50 [4] was 8 to 32 µM, the IC50 [5] was 100 to 1000 nM and the inhibition at 20 µM [6] was 10 to 25%. The “S. aureus Selectivity Indices, Group” value [7, 17] was “C (Group C: 5 < SI <= 10)”, the MIC80 [7] was 5 to 25 µM (≈ 3.05 to 15.3 µg/mL) and the “% Normalised Fluorescence with gDNA” value [8] was 16%. For the same compound, the “% Normalised Fluorescence with polyAU RNA” value [9] was 64%, the MIC99 [10] was 5 to 25 µg/mL (≈ 8.19 to 40.9 µM) and the IC50 [11] was > 50 µM. The MIC80 [12] was 25 to 100 µM (≈ 15.3 to 61.1 µg/mL) and the MIC99 [13] was < 5 µg/mL.

With `CN(C)c1ccc(/C=C/c2ccc(C(=O)Nc3cc(C(=O)Nc4c[nH]c(C(=O)NCCC(=N)N)c4)n(C)c3)cn2)cc1` [IIIa7, (E)-N-(5-((5-((3-amino-3-iminopropyl)carbamoyl)-1H-pyrrol-3-yl)carbamoyl)-1-methyl-1H-pyrrol-3-yl)-6-(4-(dimethylamino)styryl)nicotinamide] the MIC99 [1] was 5 to 25 µg/mL (≈ 8.81 to 44 µM), the IC50 [2] was > 1000 nM and the MIC80 [3] was 5 to 25 µM (≈ 2.84 to 14.2 µg/mL). For the same compound, the “SARS-CoV-2 Selectivity Indices, Group” value [4, 18] was “C (Group C: 10 < SI <= 25)”, the “SARS-CoV-2 Selectivity Index (SI)” value ([4]; SI, IC50 (μM)/IC50 (μM), HEK293 cytotoxicity, numeric value) was 24 and the IC50 [4] was < 2 µM. The IC50 [5] was > 1000 nM, the MIC99 [14] was 5 to 25 µg/mL (≈ 8.81 to 44 µM) and the “S. aureus Selectivity Indices, Group” value [7, 17] was “D (D: SI > 10)”. The “S. aureus Selectivity Index (SI)” value ([7]; SI, IC50 (μM)/MIC80 (μM), HEK293 cytotoxicity, numeric value) was 14, the MIC80 [7] was < 5 µM and the “% Normalised Fluorescence with gDNA” value [8] was 13%. The “% Normalised Fluorescence with polyAU RNA” value [9] was 20%, the MIC99 [10] was < 5 µg/mL and the “C. glabrata Selectivity Indices, Group” value ([10]; SI, IC50 (μM)/MIC99 (μg/mL), HEK293 cytotoxicity, Alkyl Amidines and NH Pyrroles) was “B (Group B: 12 < SI <= 20)”. For the same compound, the MIC80 [12] was 25 to 100 µM (≈ 14.2 to 56.8 µg/mL), the MIC99 [13] was < 5 µg/mL and the MIC99 [15] was 5 to 25 µg/mL (≈ 8.81 to 44 µM). For the same compound, the “C. auris Selectivity Indices, Group” value [15] was “C (Group C 1 < SI <= 3)”.

In the case of `[H]/N=C(\CCNC(=O)c1cc(NC(=O)c2cc(NC(=O)c3ccc(C=Cc4ccc(N(C)C)cc4)nc3)cn2C)cn1C)NCC` [Ia1, (E)-6-(4-(dimethylamino)styryl)-N-(5-((5-((3-(ethylamino)-3-iminopropyl)carbamoyl)-1-methyl-1H-pyrrol-3-yl)carbamoyl)-1-methyl-1H-pyrrol-3-yl)nicotinamide], the MIC99 [1] is reported as 5 to 25 µg/mL (≈ 8.2 to 41 µM), the IC50 [2] is reported as 10 to 100 nM and the MIC80 [3] is reported as 25 to 100 µM (≈ 15.2 to 61 µg/mL). For the same compound, the “SARS-CoV-2 Selectivity Indices, Group” value [4, 18] was “B (Group B: 4.1 < SI <= 10)”, the IC50 [4] was 2 to 8 µM and the IC50 [5] was 100 to 1000 nM. For the same compound, the MIC99 [14] was > 50 µg/mL, the “S. aureus Selectivity Indices, Group” value [7, 17] was “B (Group B: 3 < SI <= 5)” and the MIC80 [7] was 5 to 25 µM (≈ 3.05 to 15.2 µg/mL). For the same compound, the “% Normalised Fluorescence with gDNA” value [8] was 13%, the “% Normalised Fluorescence with polyAU RNA” value [9] was 5% and the MIC99 [10] was < 5 µg/mL. For the same compound, the MIC80 [12] was > 100 µM, the MIC99 [13] was < 5 µg/mL and the MIC99 [15] was 5 to 25 µg/mL (≈ 8.2 to 41 µM). The “C. auris Selectivity Indices, Group” value [15] was “B (Group B: 0.4 < SI <= 1)”.

With `Cn1cc(NC(=O)c2cc(NC(=O)c3ccc(/C=C/c4cnc5ccccc5c4)cc3)c[nH]2)cc1C(=O)NCCN1CCOCC1` [IIIb8, (E)-1-methyl-N-(2-morpholinoethyl)-4-(4-(4-(2-(quinolin-3-yl)vinyl)benzamido)-1H-pyrrole-2-carboxamido)-1H-pyrrole-2-carboxamide] the IC50 [2] was 10 to 100 nM, the MIC80 [3] was > 100 µM and the IC50 [5] was < 10 nM. For the same compound, the MIC80 [7] was < 5 µM, the “% Normalised Fluorescence with gDNA” value [8] was 37% and the “% Normalised Fluorescence with polyAU RNA” value [9] was 26%. The inhibition at 20 µM [16] was > 50% and the MIC80 [12] was > 100 µM.

For `N=C(N)CCNC(=O)c1cc(NC(=O)c2cc(NC(=O)c3ccc(/C=C/c4ccc5nonc5c4)cc3)c[nH]2)c[nH]1` [IIIa8, (E)-N-(3-amino-3-iminopropyl)-4-(4-(4-(2-(benzo[c][1,2,5]oxadiazol-5-yl)vinyl)benzamido)-1H-pyrrole-2-carboxamido)-1H-pyrrole-2-carboxamide], the MIC99 [1] was > 50 µg/mL, the IC50 [2] was 10 to 100 nM and the MIC80 [3] was > 100 µM. For the same compound, the IC50 [5] was < 10 nM, the MIC99 [14] was > 50 µg/mL and the MIC80 [7] was 25 to 100 µM (≈ 13.8 to 55.2 µg/mL). For the same compound, the “% Normalised Fluorescence with gDNA” value [8] was 31%, the “% Normalised Fluorescence with polyAU RNA” value [9] was 10% and the MIC99 [10] was > 50 µg/mL. The MIC80 [12] was > 100 µM, the MIC99 [13] was 5 to 25 µg/mL (≈ 9.07 to 45.3 µM) and the MIC99 [15] was > 50 µg/mL.

From patent publication US20250313546A1, “NUCLEIC ACID BINDERS” (UNIVERSITY OF STRATHCLYDE, priority 2022, published 2025)
